Values after ≈ are worked out from the molar mass of the structure shown. Values joined by “and” are separate entries in the source; they are usually repeats but may differ in a detail not shown here. Equal entries are not always repeated. Where two headings read alike, the source gives them in different places.
System: Ganoderma boninense
Assay: Microtiter plate growth test of Ganoderma boninense mycelium in potato-dextrose broth, absorption by photometer
Format: cell-based
Settings: for EC50: Ganoderma boninense; for efficacy in controlling basal stem rot (BSR) disease, in words: verbal assessment of the EC50 data
Protocol: • 1. Culturing of the isolates on potato-dextrose agar (PDA) • 2. Preparation of a liquid potato-dextrose broth (PDB) as inoculum • For the development of the mycelium, 10 small pieces of the mycelium were transferred into 200 ml of the liquid potato-dextrose broth (PDB) and cultured for 7 days in a greenhouse cabinet at 26° C. • The mycelium was isolated, transferred into 200 ml of fresh liquid potato-dextrose broth supplemented with 25 mg/l enrofloxacin and comminuted using a homogenizer (5 seconds, Ultra Turrax). Thereafter this mycelial suspension was adjusted to two mycelial densities: • Inoculum A: “High mycelial density” • Homogenized mycelial suspension made up to 400 ml with PDB+enrofloxacin • Inoculum B: “Low mycelial density” • 100 ml of inoculum A made up to 400 ml with PDB+enrofloxacin • 3. Microtiter plate test: • Concentration range from 0.0-0.0064-0.032-0.16-4-20 to 100 ppm for each fungicide (active component) • Fungicide and inoculum were distributed using an automatic dispenser • 4. Evaluation (growth determination): • This is carried out every 2 days (1st evaluation after 4 days) by measuring the absorption over 13 days, using a photometer. II. Results
EC50 & (MEC50): Fungicide concentration at which the fungal growth is reduced by 50%: […]

[1] = G. boninense, low mycelial density, after 13 days, single determinations
[2] = 144 h, G. boninense, high mycelial density, after 6 days, single determinations, read-out: EC50 data
[3] = 144 h, G. boninense, high mycelial density, after 6 days, read-out: MEC50s (mean EC50 data)
[4] = 144 h, G. boninense, low mycelial density, after 6 days, single determinations, read-out: EC50 data
[5] = 144 h, G. boninense, low mycelial density, after 6 days, read-out: MEC50s (mean EC50 data)
[6] = 312 h, G. boninense, high mycelial density, after 13 days, read-out: MEC50s (mean EC50 data)
[7] = 312 h, G. boninense, low mycelial density, after 13 days, single determinations, read-out: EC50 data
[8] = 312 h, G. boninense, low mycelial density, after 13 days, read-out: MEC50s (mean EC50 data)
[9] = G. boninense, high mycelial density, after 13 days, single determinations
[10] = 312 h, G. boninense, high mycelial density, after 13 days, single determinations, read-out: EC50 data
[11] = G. boninense, low mycelial density, after 6 days, single determinations
[12] = G. boninense, high mycelial density, after 6 days, single determinations

| SMILES | EC50 data [1] | EC50 [2] [µg/mL] | EC50 [3] [µg/mL] | EC50 [4] [µg/mL] | EC50 [5] [µg/mL] | EC50 [6] [µg/mL] | EC50 [7] [µg/mL] | EC50 [8] [µg/mL] | efficacy in controlling basal stem rot (BSR) disease, in words | EC50 data [9] | EC50 [10] [µg/mL] | EC50 data [11] | EC50 (144 h, read-out: EC50 data, G. boninense, low mycelial density, after 6 days, single determinations) [µg/mL] | EC50 (144 h, read-out: MEC50s (mean EC50 data), G. boninense, low mycelial density, after 6 days) [µg/mL] | EC50 (312 h, read-out: EC50 data, G. boninense, low mycelial density, after 13 days, single determinations) [µg/mL] | EC50 (312 h, read-out: MEC50s (mean EC50 data), G. boninense, low mycelial density, after 13 days) [µg/mL] | EC50 data [12] |
| --- | --- | --- | --- | --- | --- | --- | --- | --- | --- | --- | --- | --- | --- | --- | --- | --- | --- |
| CC(C)(C)C(O)(CCc1ccc(Cl)cc1)Cn1cncn1 (stereo not drawn) [Tebuconazole] | 0.0065 µg/mL and 0.0067 µg/mL and 0.0072 µg/mL | 0.0064 (≈ 0.0208 µM) | 0.006 (≈ 0.0195 µM) | 0.0064 (≈ 0.0208 µM) | 0.006 (≈ 0.0195 µM) | 0.011 (≈ 0.0357 µM) | 0.0086 (≈ 0.0279 µM) | 0.007 (≈ 0.0227 µM) | best activity | – | – | – | – | – | – | – | – |
| CON=C(C(=O)OC)c1ccccc1CON=C(C)c1cccc(C(F)(F)F)c1 [Trifloxystrobin] | – | 0.0064 (≈ 0.0157 µM) | 0.006 (≈ 0.0147 µM) | 0.0064 (≈ 0.0157 µM) | 0.006 (≈ 0.0147 µM) | 0.01 (≈ 0.0245 µM) | – | 0.02 (≈ 0.049 µM) | outstanding efficacy | 0.0119 µg/mL and 0.0081 µg/mL and 0.0115 µg/mL | 0.0064 (≈ 0.0157 µM) | – | – | – | – | – | – |
| O=c1c2cc(F)ccc2nc(-n2cncn2)n1-c1ccc(Cl)cc1Cl [Fluquinconazole] | 0.0532 µg/mL and 0.0915 µg/mL and 0.0656 µg/mL and 0.0577 µg/mL and 0.075 µg/mL | – | 0.034 (≈ 0.0904 µM) | 0.0308 (≈ 0.0819 µM) | 0.023 (≈ 0.0611 µM) | 0.041 (≈ 0.109 µM) | 0.0591 (≈ 0.157 µM) | 0.066 (≈ 0.175 µM) | – | 0.0450 µg/mL and 0.0443 µg/mL and 0.0458 µg/mL and 0.0352 µg/mL and 0.0386 µg/mL | 0.0393 (≈ 0.104 µM) | 0.0178 µg/mL and 0.0228 µg/mL and 0.0239 µg/mL and 0.0224 µg/mL and 0.022 µg/mL | – | – | – | – | – |
| CCCN(CCOc1c(Cl)cc(Cl)cc1Cl)C(=O)n1ccnc1 [Prochloraz] | 0.6978 µg/mL and 1.0994 µg/mL and 0.7737 µg/mL and 0.8261 µg/mL and 1.1128 µg/mL | – | – | – | – | – | – | – | – | – | – | 0.3566 µg/mL and 0.5803 µg/mL and 0.5515 µg/mL and 0.6018 µg/mL and 0.5704 µg/mL | 0.497 (≈ 1.32 µM) | 0.519 (≈ 1.38 µM) | 0.94 (≈ 2.5 µM) | 0.895 (≈ 2.38 µM) | – |
| OC(Cc1ccccc1Cl)(Cn1nc[nH]c1=S)C1(Cl)CC1 (stereo not drawn) [Prothioconazole] | – | 0.0064 (≈ 0.0186 µM) | 0.008 (≈ 0.0232 µM) | – | 0.012 (≈ 0.0349 µM) | 0.009 (≈ 0.0261 µM) | – | 0.014 (≈ 0.0407 µM) | best activity | 0.0084 µg/mL and 0.0068 µg/mL | 0.0064 (≈ 0.0186 µM) | – | – | – | – | – | 0.0069 µg/mL and 0.0087 µg/mL and 0.0117 µg/mL and 0.0073 µg/mL |
| CC(C)(C)C(O)C(Oc1ccc(-c2ccccc2)cc1)n1cncn1 (stereo not drawn) [Bitertanol] | 0.1355 µg/mL and 0.1360 µg/mL and 0.1146 µg/mL and 0.1235 µg/mL and 0.1014 µg/mL | 0.0801 (≈ 0.237 µM) | 0.062 (≈ 0.184 µM) | – | 0.061 (≈ 0.181 µM) | 0.054 (≈ 0.16 µM) | 0.118 (≈ 0.35 µM) | 0.121 (≈ 0.359 µM) | similarly effective | – | – | – | – | – | – | – | 0.0518 µg/mL and 0.0614 µg/mL and 0.058 µg/mL and 0.0542 µg/mL and 0.0679 µg/mL |
| Cc1nn(C)c(F)c1C(=O)Nc1ccccc1C(C)CC(C)C (stereo not drawn) [Penflufen, N-[2-(1,3-dimethylbutyl)phenyl]-5-fluoro-1,3-dimethyl-1H-pyrazole-4-carboxamide] | – | 0.0076 (≈ 0.0239 µM) | 0.008 (≈ 0.0252 µM) | 0.0064 (≈ 0.0202 µM) | 0.006 (≈ 0.0189 µM) | 0.022 (≈ 0.0693 µM) | – | 0.015 (≈ 0.0473 µM) | – | – | – | 0.0065 µg/mL (≈ 0.0205 µM) | – | – | – | – | 0.0098 µg/mL and 0.0087 µg/mL |
| Cn1cc(C(=O)Nc2ccc(F)cc2-c2ccc(Cl)c(Cl)c2)c(C(F)F)n1 [Bixafen, N-(3′,4′-dichloro-5-fluoro-1,1′-biphenyl-2-yl)-3-(difluoromethyl)-1-methyl-1H-pyrazole-4-carboxamide] | – | – | 0.07 (≈ 0.169 µM) | – | 0.027 (≈ 0.0652 µM) | 0.096 (≈ 0.232 µM) | – | 0.096 (≈ 0.232 µM) | – | – | – | – | – | – | – | – | – |
| CO/N=C(/C1=NOCCO1)c1ccccc1Oc1ncnc(Oc2ccccc2Cl)c1F [Fluoxastrobin] | – | – | – | – | 0.036 (≈ 0.0785 µM) | – | – | 0.158 (≈ 0.344 µM) | less effective | – | – | – | – | – | – | – | – |
| CC(C)(C)C(O)C(Oc1ccc(Cl)cc1)n1cncn1 (stereo not drawn) [Triadimenol] | 0.0963 µg/mL and 0.0723 µg/mL and 0.1064 µg/mL and 0.1074 µg/mL | 0.0386 (≈ 0.131 µM) | 0.052 (≈ 0.176 µM) | 0.106 (≈ 0.359 µM) | 0.093 (≈ 0.314 µM) | 0.06 (≈ 0.203 µM) | 0.103 (≈ 0.349 µM) | 0.098 (≈ 0.331 µM) | similarly effective | – | – | 0.08 µg/mL and 0.1062 µg/mL and 0.1077 µg/mL and 0.1076 µg/mL and 0.0638 µg/mL | – | – | – | – | 0.0446 µg/mL and 0.0475 µg/mL and 0.0712 µg/mL and 0.0434 µg/mL and 0.0767 µg/mL |
